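Each compound was tested at five concentrations against cells in 96-well plates for 48 hours. GI50: concentration for 50% inhibition of growth.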 Activity calls are given as the source filed them. No stated cut-off is given here; in the data, active = GI50 up to about 1.1 µM and inactive = higher.
Columns and labels:
Experiment in all cases: DTP human tumour cell line panel, 48 h
OVCAR-4 = system: OVCAR-4
U-251 = system: U-251
SNB-75 = system: SNB-75
KM12 = system: KM12
NCI/ADR-RES = system: NCI/ADR-RES
NCI-H522 = system: NCI-H522
UO-31 = system: UO-31
DU-145 = system: DU-145
OVCAR-3 = system: OVCAR-3
M14 = system: M14
ACHN = system: ACHN
LOX IMVI = system: LOX IMVI
HCT-15 = system: HCT-15
OVCAR-5 = system: OVCAR-5
SK-OV-3 = system: SK-OV-3
BT-549 = system: BT-549
SK-MEL-2 = system: SK-MEL-2
UACC-257 = system: UACC-257
HOP-62 = system: HOP-62

Row | SMILES | GI50 (OVCAR-4) | GI50 (U-251) | GI50 (SNB-75) | GI50 (KM12) | GI50 (NCI/ADR-RES) | GI50 (NCI-H522) | GI50 (UO-31) | GI50 (DU-145) | GI50 (OVCAR-3) | GI50 (M14) | GI50 (ACHN) | GI50 (LOX IMVI) | GI50 (HCT-15) [µM] | GI50 (OVCAR-5) | GI50 (SK-OV-3) | GI50 (BT-549) | GI50 (SK-MEL-2) | GI50 (UACC-257) | GI50 (HOP-62)
1 | C/C(Nc1ccc(Cl)cc1)=C1/CCOC1=O | > 100 µM (inactive) | > 100 µM (inactive) | > 67.8 µM (inactive) | 0.618 µM (active) | > 75.9 µM (inactive) | > 70 µM (inactive) | 2.81 µM (inactive) | 6.31 µM (inactive) | 46.8 µM (inactive) | 2.62 µM (inactive) | 13.7 µM (inactive) | 0.277 µM (active) | > 100 | > 20.5 µM (inactive) | 59.2 µM (inactive) | 52.7 µM (inactive) | 12.7 µM (inactive) | 46.5 µM (inactive) | 
2 | N#CCN1CCN(CC#N)CCN(CC#N)CCN(CC#N)CC1 | > 100 µM (inactive) | > 100 µM (inactive) | > 100 µM (inactive) | > 100 µM (inactive) | > 100 µM (inactive) | > 100 µM (inactive) | > 100 µM (inactive) | > 100 µM (inactive) | > 100 µM (inactive) | > 100 µM (inactive) | > 100 µM (inactive) | 33.3 µM (inactive) |  | > 100 µM (inactive) | 46.8 µM (inactive) | > 100 µM (inactive) | > 100 µM (inactive) | > 100 µM (inactive) | > 100 µM (inactive)
3 | O=[N+]([O-])c1ccc2c(c1)c1nn2CCCCOc2nn(c3ccc([N+](=O)[O-])cc23)CCCCO1 | > 100 µM (inactive) | > 100 µM (inactive) | > 100 µM (inactive) |  | > 100 µM (inactive) | > 100 µM (inactive) | > 100 µM (inactive) | > 100 µM (inactive) | > 100 µM (inactive) | > 100 µM (inactive) | > 100 µM (inactive) | > 100 µM (inactive) | > 100 | > 100 µM (inactive) | > 100 µM (inactive) | > 100 µM (inactive) | > 100 µM (inactive) | > 100 µM (inactive) | 0.743 µM (active)
4 | C/C(=N\NC(=O)Nc1ccccc1Cl)c1ccc(O)cc1 | > 100 µM (inactive) | 77.6 µM (inactive) | 34.1 µM (inactive) | > 100 µM (inactive) | > 100 µM (inactive) | > 100 µM (inactive) | > 100 µM (inactive) | > 100 µM (inactive) | > 100 µM (inactive) | > 100 µM (inactive) | > 100 µM (inactive) | 45.6 µM (inactive) | 2.28 | > 100 µM (inactive) | > 100 µM (inactive) | > 100 µM (inactive) | > 100 µM (inactive) | > 100 µM (inactive) | 
5 | CN(C)CCCNC(=O)c1cc(NC(=O)c2cc(NC(=O)c3cc(NC(=O)CCCn4ccc(CO)c4CO)cn3C)cn2C)cn1C | 19.5 µM (inactive) | 2.77 µM (inactive) | 5.01 µM (inactive) | > 100 µM (inactive) | > 100 µM (inactive) | 2.37 µM (inactive) | > 100 µM (inactive) | 3.94 µM (inactive) | 10.9 µM (inactive) |  | 15.8 µM (inactive) | 4.28 µM (inactive) | > 100 | 3.99 µM (inactive) | 1.06 µM (active) | 2.64 µM (inactive) | 25.6 µM (inactive) |  | 
6 | CSC1=C(C#N)C(=S)N=C(N)C1C(=O)Nc1ccc(C)cc1 (stereo not given) | > 100 µM (inactive) | > 100 µM (inactive) | > 100 µM (inactive) | > 100 µM (inactive) | > 100 µM (inactive) | 32 µM (inactive) | 64 µM (inactive) | > 100 µM (inactive) | > 100 µM (inactive) | > 100 µM (inactive) |  | > 100 µM (inactive) | > 100 | > 100 µM (inactive) | > 100 µM (inactive) | > 100 µM (inactive) | > 100 µM (inactive) | > 100 µM (inactive) | 

Reference: ChEMBL document CHEMBL1201862, “PubChem BioAssay data set” (2004)
